Biological target: T1, electric eel AChE (eeAChE) (Electrophorus electricus, UniProt O42275)
T1 construct: purchased type VI-S
Assay: biochemical
Assay type: biochemical
Method: A UV–vis spectrophotometry-based assay was conducted to calculate the IC50 values for the diastereomeric mixtures (Table 6), according to Ellman et al.[37] and Mohamed et al.[38]
All of these solutions were prepared freshly directly before the assay was run. In 96-well plates, 160 μL of the 1.5 mM DTNB solution was first added, followed by 10 μL of different concentrations of test compounds. Then, a 0.22 U/mL enzyme solution was added (50 μL) and incubated at room temperature for 7 min. The background absorbance was measured at a wavelength of 412 nm on a POLARstar OPTIMA (BMG Labtech) microplate reader. The addition of 30 μL of the 15 mM ATCI solution initiated the enzymatic reaction, and the time elapsed between the beginning of the pipetting and the first measurement (t = 0) was noted and kept consistently at 2 min. Further kinetic measurements were made at different time intervals (t = 1, 2, 3, 4, 5 min) after a short episode of shaking (10 s). Each experiment was carried out in triplicate. Various control incubations containing 10 μL of methanol were run alongside the test compounds on each plate.

T1 sequence (O42275 24-633): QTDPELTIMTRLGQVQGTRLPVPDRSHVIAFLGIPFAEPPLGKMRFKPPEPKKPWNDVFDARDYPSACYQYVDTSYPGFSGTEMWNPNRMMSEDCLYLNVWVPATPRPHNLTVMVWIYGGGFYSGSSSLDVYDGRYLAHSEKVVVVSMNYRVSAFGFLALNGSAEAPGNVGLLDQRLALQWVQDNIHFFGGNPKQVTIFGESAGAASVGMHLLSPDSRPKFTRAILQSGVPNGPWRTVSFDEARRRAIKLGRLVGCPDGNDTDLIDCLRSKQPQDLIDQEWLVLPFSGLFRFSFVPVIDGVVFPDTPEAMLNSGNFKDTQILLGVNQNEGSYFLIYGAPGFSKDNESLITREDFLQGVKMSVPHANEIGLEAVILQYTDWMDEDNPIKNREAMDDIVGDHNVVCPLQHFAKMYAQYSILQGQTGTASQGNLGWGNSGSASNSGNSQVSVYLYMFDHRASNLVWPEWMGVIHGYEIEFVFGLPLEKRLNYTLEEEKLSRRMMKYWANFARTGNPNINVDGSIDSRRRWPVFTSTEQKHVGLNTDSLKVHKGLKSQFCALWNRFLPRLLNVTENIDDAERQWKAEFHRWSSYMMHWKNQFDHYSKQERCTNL

Molecule COc1cc2c(cc1OC)C(=O)C(C[C@@H]1CCN([C@@H](C)c3ccccc3)[C@H](C)C1)C2 (stereo partly drawn) [2R,4R-4+4’d, R-5,6-Dimethoxy-2-((2R,4R-2-methyl-1-(S-1-phenylethyl)piperidin-4-yl)-methyl)-2,3-dihydro-1H-inden-1-one (4d) and S-5,6-Dimethoxy-2-((2R,4R-2-methyl-1-(S-1-phenylethyl)piperidin-4-yl)-methyl)-2,3-dihydro-1H-inden-1-one (4′d)] has an IC50 of 13.1 ± 0.47 µM.
COc1cc2c(cc1OC)C(=O)C(CC1CCN([C@@H](C)c3ccccc3)CC1)C2 (stereo partly shown) [19+19’, R-5,6-Dimethoxy-2-((1-(S-1-phenylethyl)piperidin-4-yl)methyl)-2,3-dihydro-1H-inden-1-one (19) and S-5,6-Dimethoxy-2-((1-(S-1-phenylethyl)piperidin-4-yl)methyl)-2,3-dihydro-1H-inden-1-one (19′)] was tested, and the IC50 was 1.83 ± 0.04 µM and the “times less active than donepezil 1 (IC50 ratio)” value (eeAChE IC50 compared with donepezil 1) was “approximately 27 times”.
Molecule COc1cc2c(cc1OC)C(=O)C(C[C@@H]1CCN([C@@H](C)c3ccccc3)[C@@H](C)C1)C2 (stereo partly drawn) [2S,4R-4+4’b, R-5,6-Dimethoxy-2-((2S,4R-2-methyl-1-(S-1-phenylethyl)piperidin-4-yl)-methyl)-2,3-dihydro-1H-inden-1-one (4b) and S-5,6-Dimethoxy-2-((2S,4R-2-methyl-1-(S-1-phenylethyl)piperidin-4-yl)-methyl)-2,3-dihydro-1H-inden-1-one (4′b)] has an IC50 of 8.82 ± 0.21 µM.
With COc1cc2c(cc1OC)C(=O)C(C[C@H]1CCN([C@@H](C)c3ccccc3)[C@@H](C)C1)C2 (stereo partly drawn) [2S,4S-4+4’a, R-5,6-Dimethoxy-2-((2S,4S-2-methyl-1-(S-1-phenylethyl)piperidin-4-yl)-methyl)-2,3-dihydro-1H-inden-1-one (4a) and y-5,6-Dimethoxy-2-((2S,4S-2-methyl-1-(S-1-phenylethyl)piperidin-4-yl)-methyl)-2,3-dihydro-1H-inden-1-one (4′a)] the IC50 was 1.01 ± 0.03 µM and the “times more active than the 2R,4S-anti-substituted analogues 4 + 4′c (IC50 ratio)” value (eeAChE IC50, syn versus anti) was “approximately 24 times”.
In the case of COc1cc2c(cc1OC)C(=O)C(C[C@H]1CCN([C@@H](C)c3ccccc3)[C@H](C)C1)C2 (stereo partly drawn) [2R,4S-4+4’c, R-5,6-Dimethoxy-2-((2R,4S-2-methyl-1-(S-1-phenylethyl)piperidin-4-yl)-methyl)-2,3-dihydro-1H-inden-1-one (4c) and S-5,6-Dimethoxy-2-((2R,4S-2-methyl-1-(S-1-phenylethyl)piperidin-4-yl)-methyl)-2,3-dihydro-1H-inden-1-one (4′c)], the IC50 is reported as 24.3 ± 1.32 µM.

From PMC7017409 (ACS Omega, 2020)
